What follows are molecules tested against T1, Glucocorticoid Receptor (Homo sapiens, UniProt P04150) (assay: Agonistic mode of action on the glucocorticoid receptor (CHO-Gal4/GR luciferase reporter cell line)). Details: CHO-Gal4/GR luciferase reporter cells; observed in the agonistic assay or the antagonistic assay (mode not given); read-out: IC50 or EC50 range.
T1 construct: expressed in transfected cells
T1 sequence (P04150 524-758 limits assumed): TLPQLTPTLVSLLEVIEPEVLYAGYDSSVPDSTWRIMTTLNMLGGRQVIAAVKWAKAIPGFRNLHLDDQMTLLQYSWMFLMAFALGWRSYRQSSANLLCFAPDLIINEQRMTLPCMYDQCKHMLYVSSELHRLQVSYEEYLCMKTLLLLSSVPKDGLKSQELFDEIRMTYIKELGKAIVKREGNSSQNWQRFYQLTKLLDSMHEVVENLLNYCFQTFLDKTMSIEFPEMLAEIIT
Type: cell-based
Excerpt: Potential selective glucocorticoid receptor modulators of this intervention can be tested for modulation of the activity of the glucocorticoid receptor using cell-based assays. These assays involve a Chinese hamster ovary (CHO) cell line which contains fragments of the glucocorticoid receptor as well as fusion proteins. The glucocorticoid receptor fragments used are capable of binding the ligand (e.g. beclomethasone) to identify molecules that compete for binding with glucocorticoid receptor ligands. In more detail, the glucocorticoid receptor ligand binding domain is fused to the DNA binding domain (DBD) of the transcriptionfactor GAL4 (GAL4 DBD-GR) and is stably integrated into a CHO cell line containing a GAL4-UAS-Luciferase reporter construct. […] After cell lysis the luminescence that is produced by luciferase after addition of the substrate is detected and EC50 or IC50 values can be calculated. Engagement of molecules which induce gene expression via glucocortocoid receptor binding to the DNA leads to expression of the luciferase gene under the control of the fusion protein GAL4 DBD-GR and therefore to a dose-dependent increase of the luminescence signal. Binding of molecules which repress beclomethasone-induced gene expression of the luciferase gene under the control of the fusion protein GAL4 DBD-GR leads to a dose-dependent reduction of the luminescence signal.
The reporter cell line CHO-Gal4/GR consisted of a chinese hamster ovary (CHO) cell line (Leibniz Institute DSMZ—German Collection of Microorganisms and Cell Cultures GmbH: ACC-110) containing a firefly luciferase gene under the control of the GR ligand binding domain fused to the DNA binding domain (DBD) of GAL4 (GAL4 DBD-GR) stably integrated into CHO cells. This cell line was established by stable transfection of CHO cells with a GAL4-UAS-Luciferase reporter construct. In a subsequent step the ligand binding domain of the GR cloned into pIRES2-EGFP-GAL4 containing the DNA binding domain of GAL4 from pFA-AT2 was transfected. This fusion construct activated firefly luciferase expression under the control of a multimerized GAL4 upstream activation sequence (UAS). The signal of the emitted luminescence was recorded by the FLIPR^TETRA. This allowed for specific detection of ligand-induced activation of the GR and therefore for the identification of compounds with agonistic properties. The GAL4/UAS reporter was premixed with a vector that constitutively expressed Renilla luciferase, which served as an internal positive control for transfection efficiency.
The complete culture medium for the assay was: • DMEM F-12 (1:1) MIXTURE (LONZA cat. No: BE04-687F/U1) 500 mL • 5 mL of 100 mM Sodium Pyruvate (LONZA cat. No: BE12-115E) • 25 mL of 7.5% Sodium Bicarbonate (LONZA cat. No BE17-613E) • 6.5 mL of 1 M Hepes (LONZA cat. No: BE17-737E) • 5 mL of 100× Penicillin/Streptomycin (LONZA cat. No DE17-602E) • 50 mL of Fetal Bovine Serum (Euroclone cat. No ECS 0180L) • 0.25 mL of 10 mg/mL Puromycin (InvivoGen cat.: ant-pr-1) • 0.5 mL of 100 mg/mL Zeocin (InvivoGen cat.: ant-zn-1)
Cryo-preserved CHO-Gal4/GR cells were suspended in complete medium and 5000 cells/25 μl/well were seeded into the wells of 384-well polystyrene assay plates (Thermo Scientific, cat. #4332) and cultured at 37° C., 5% CO2 and 95% humidity. After 24 hours growth medium was carefully removed and replaced by 30111 Opti-MEM (GIBCO, cat. #31985062) as assay buffer. To test the compounds an 8-point half-log compound dilution curve was generated in 100% DMSO starting from a 2 mM stock and compounds were then diluted 1:50 in Opti-MEM. 10111 of compounds were then added to the wells containing 30 μl Opti-MEM resulting in a final assay concentration range from 10 μM to 0.003 μM in 0.5% DMSO. Compounds were tested at 8 concentrations in quadruplicate data points. […] Finally, cells were lysed with 20 μl of Triton/Luciferin solution and the signal of the emitted luminescence was recorded at the FLIPR^TETRA for 2 minutes. […]

| IC50 or EC50 (antagonist or agonist mode, not stated per compound) [nM] | SMILES |
| --- | --- |
| < 100 | Cc1c(-c2cc(F)cc3c(C4CC4)c[nH]c23)cc(F)c2c1-n1c(C)nnc1C(C)(C)N2 [Example 38, 8-(3-cyclopropyl-5-fluoro-1H-indol-7-yl)-6-fluoro-1,4,4,9-tetramethyl-4,5-dihydro-1-[1,2,4]triazolo[4,3-a]quinoxaline] |
| < 100 | CCc1c(-c2cc(F)cc3c2ccn3S(C)(=O)=O)cc(F)c2c1-n1c(C)nnc1C(C)(C)N2 [Example 48, 9-Ethyl-6-fluoro-8-(6-fluoro-1-methylsulfonyl-1H-indol-4-yl)-1,4,4-trimethyl-5H-[1,2,4]triazolo[4,3-a]quinoxaline] |
| 100 to 1000 | CCc1c(-c2cccc3c2ccn3S(C)(=O)=O)cc(F)c2c1-n1c(C)nnc1C(C)(C)N2 [Example 49, 9-ethyl-6-fluoro-1,4,4-trimethyl-8-(1-(methylsulfonyl)-1H-indol-4-yl)-4,5-dihydro-[1,2,4]triazolo[4,3-a]quinoxaline] |
| 100 to 1000 | CCc1c(-c2cc(F)cc3c2cnn3S(C)(=O)=O)cc(F)c2c1-n1c(C)nnc1C(C)(C)N2 [Example 53, 9-Ethyl-6-fluoro-8-(6-fluoro-1-methylsulfonyl-1H-indazol-4-yl)-1,4,4-trimethyl-5H-[1,2,4]triazolo[4,3-a]quinoxaline] |
| 100 to 1000 | COCCn1ccc2c(-c3cc(F)c4c(c3OC)-n3c(C)nnc3C(C)(C)N4)cc(F)cc21 [Example 54, 6-Fluoro-8-[6-fluoro-1-(2-methoxy-ethyl)-1H-indol-4-yl]-9-methoxy-1,4,4-trimethyl-5H-[1,2,4]triazolo[4,3-a]quinoxaline] |
| 100 to 1000 | COc1c(-c2cc(F)cc3c2ccn3CCO)cc(F)c2c1-n1c(C)nnc1C(C)(C)N2 [Example 55, 2-[6-Fluoro-4-(6-fluoro-9-methoxy-1,4,4-trimethyl-5H-[1,2,4]triazolo[4,3-a]quinoxalin-8-yl)-1H-indol-1-yl]-EtOH] |
| 100 to 1000 | COc1c(-c2cc(F)cc3c2ccn3S(C)(=O)=O)cc(F)c2c1-n1c(C)nnc1C(C)(C)N2 [Example 56, 6-Fluoro-8-(6-fluoro-1-methylsulfonyl-1H-indol-4-yl)-9-methoxy-1,4,4-trimethyl-5H-[1,2,4]triazolo[4,3-a]quinoxaline] |
| 100 to 1000 | COc1c(-c2cccc3c2ccn3S(C)(=O)=O)cc(F)c2c1-n1c(C)nnc1C(C)(C)N2 [Example 57, 6-Fluoro-9-methoxy-1,4,4-trimethyl-8-(1-methylsulfonyl-1H-indol-4-yl)-5H-[1,2,4]triazolo[4,3-a]quinoxaline] |
| 100 to 1000 | COc1c(-c2cc(F)cc3c2ccn3CC(F)F)cc(F)c2c1-n1c(C)nnc1C(C)(C)N2 [Example 58, 8-(1-(2,2-difluoroethyl)-6-fluoro-1H-indol-4-yl)-6-fluoro-9-methoxy-1,4,4-trimethyl-4,5-dihydro-[1,2,4]triazolo[4,3-a]quinoxaline] |
| 1000 to 15000 | COc1c(-c2cc(F)cc3c2ccn3S(C)(=O)=O)cc(F)c2c1-n1c(C3CC3)nnc1C(C)(C)N2 [Example 59, 1-Cyclopropyl-6-fluoro-8-(6-fluoro-1-methylsulfonyl-1H-indol-4-yl)-9-methoxy-4,4-dimethyl-5H-[1,2,4]triazolo[4,3-a]quinoxaline] |
| 1000 to 15000 | COc1c(-c2cc(F)cc3c2ccn3CCO)cc(F)c2c1-n1c(C3CC3)nnc1C(C)(C)N2 [Example 61, 2-[4-(1-Cyclopropyl-6-fluoro-9-methoxy-4,4-dimethyl-5H-[1,2,4]triazolo[4,3-a]quinoxalin-8-yl)-6-fluoro-1H-indol-1-yl]-EtOH] |
| 100 to 1000 | COc1c(-c2cc(F)cc3c(C)c[nH]c23)cc(F)c2c1-n1c(C3CC3)nnc1C(C)(C)N2 [Example 62, 1-Cyclopropyl-6-fluoro-8-(5-fluoro-3-methyl-1H-indol-7-yl)-9-methoxy-4,4-dimethyl-5H-[1,2,4]triazolo[4,3-a]quinoxaline] |
| 100 to 1000 | Cc1c(-c2cc(F)cc3c2ccn3S(C)(=O)=O)cc(F)c2c1-n1c(C3CC3)nnc1C(C)(C)N2 [Example 63, 1-Cyclopropyl-6-fluoro-8-(6-fluoro-1-methylsulfonyl-1H-indol-4-yl)-4,4,9-trimethyl-5H-[1,2,4]triazolo[4,3-a]quinoxaline] |
| 1000 to 15000 | Cc1c(-c2cccc3c2ccn3S(C)(=O)=O)cc(F)c2c1-n1c(C3CC3)nnc1C(C)(C)N2 [Example 64, 1-Cyclopropyl-6-fluoro-4,4,9-trimethyl-8-(1-methylsulfonyl-1H-indol-4-yl)-5H-[1,2,4]triazolo[4,3-a]quinoxaline] |
| 1000 to 15000 | Cc1c(-c2cc(F)cc3c2ccn3CCO)cc(F)c2c1-n1c(C3CC3)nnc1C(C)(C)N2 [Example 65, 2-[4-(1-Cyclopropyl-6-fluoro-4,4,9-trimethyl-5H-[1,2,4]triazolo[4,3-a]quinoxalin-8-yl)-6-fluoro-1H-indol-1-yl]-EtOH] |
| 100 to 1000 | Cc1c(-c2cc(F)cc3c(C)c[nH]c23)cc(F)c2c1-n1c(C3CC3)nnc1C(C)(C)N2 [Example 66, 1-Cyclopropyl-6-fluoro-8-(5-fluoro-3-methyl-1H-indol-7-yl)-4,4,9-trimethyl-5H-[1,2,4]triazolo[4,3-a]quinoxaline] |
| 100 to 1000 | COCCn1ccc2c(-c3cc(F)c4c(c3C)-n3c(C)nnc3C(C)(C)N4)cccc21 [Example 300, 6-Fluoro-8-[1-(2-methoxy-ethyl)-1H-indol-4-yl]-1,4,4,9-tetramethyl-5H-[1,2,4]triazolo[4,3-a]quinoxaline] |
| 100 to 1000 | Cc1c(-c2cccc3c2ccn3CCO)cc(F)c2c1-n1c(C)nnc1C(C)(C)N2 [Example 301, 2-[4-(6-Fluoro-1,4,4,9-tetramethyl-5H-[1,2,4]triazolo[4,3-a]quinoxalin-8-yl)-1H-indol-1-yl]-EtOH] |
| 100 to 1000 | Cc1c(-c2cccc3c2cnn3C)cc(F)c2c1-n1c(C)nnc1C(C)(C)N2 [Example 304, 6-Fluoro-1,4,4,9-tetramethyl-8-(1-methyl-1H-indazol-4-yl)-5H-[1,2,4]triazolo[4,3-a]quinoxaline] |
| < 100 | Cc1c(-c2cccc3c2ccn3C2CC2)cc(F)c2c1-n1c(C)nnc1C(C)(C)N2 [Example 305, 8-(1-Cyclopropyl-1H-indol-4-yl)-6-fluoro-1,4,4,9-tetramethyl-5H-[1,2,4]triazolo[4,3-a]quinoxaline] |
| < 100 | CCc1nnc2n1-c1c(C)c(-c3cccc4c3ccn4S(C)(=O)=O)cc(F)c1NC2(C)C [Example 308, 1-Ethyl-6-fluoro-4,4,9-trimethyl-8-(1-methylsulfonyl-1H-indol-4-yl)-5H-[1,2,4]triazolo[4,3-a]quinoxaline] |

— patent US11981677B2, “Further substituted triazolo quinoxaline derivatives” (Grünenthal GmbH, priority 2018, dated 2024)
